From patent US8426598B2, “N-heterocyclic M1 receptor positive allosteric modulators” (Merck, Sharp & Dohme, Corp., priority 2008, dated 2013) come the findings set out here.

The structures appear in SMILES notation.

The assay addresses T1, acetylcholine muscarinic M1 receptor (CHOnfat/hM1 cells) (Homo sapiens, UniProt P11229).
T1 construct: expressed in transfected cells; host or cells: CHOnfat cells (CHO, Geneticin selection)
T1 sequence (P11229 1-460): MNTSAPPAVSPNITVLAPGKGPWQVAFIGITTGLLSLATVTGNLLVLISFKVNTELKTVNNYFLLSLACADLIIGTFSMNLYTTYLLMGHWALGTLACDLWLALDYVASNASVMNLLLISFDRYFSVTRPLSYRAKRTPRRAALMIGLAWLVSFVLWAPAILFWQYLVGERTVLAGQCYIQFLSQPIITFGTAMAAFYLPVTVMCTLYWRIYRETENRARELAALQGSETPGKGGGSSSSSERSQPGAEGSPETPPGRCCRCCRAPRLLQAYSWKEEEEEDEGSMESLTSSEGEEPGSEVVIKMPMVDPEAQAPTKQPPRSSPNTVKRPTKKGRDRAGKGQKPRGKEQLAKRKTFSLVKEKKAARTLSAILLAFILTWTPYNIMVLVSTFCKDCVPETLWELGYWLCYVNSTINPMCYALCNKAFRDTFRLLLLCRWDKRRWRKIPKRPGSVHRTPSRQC
In words: muscarinic FLIPR assay: intracellular calcium, potentiation of an EC20 concentration of acetylcholine. The format is cell-based. Conditions: FLIPR Ca2+, 4 min preincubation, then EC20 acetylcholine (3 nM final), read-out: IP Value (inflection point). On the procedure:
The assay studies the effect of one or several concentrations of test compounds on basal or acetylcholine-stimulated Ca^2+ levels using FLIPR.
Compounds are prepared and subjected to a preincubation period of 4 min. Thereafter, a single EC20 concentration of acetylcholine is added to each well (3 nM final). The intracellular Ca^2+ level of each sample is measured and compared to an acetylcholine control to determine any modulatory activity.
Cells: CHOnfat/hM1, hM2, hM3 or hM4 cells are plated 24 hr before the assay at a density of 18,000 cells/well (100 μL) in a 384 well plate. CHOnfat/hM1 and CHOnfat/hM3 Growth Medium: 90% DMEM (Hi Glucose); 10% HI FBS; 2 mM L-glutamine; 0.1 mM NEAA; Pen-Strep; and 1 mg/ml Geneticin, are added. For M2Gqi5CHOnfat and M4Gqi5CHOnfat cells, an additional 600 μg/ml hygromycin is added.
Equipment: 384 well plate, 120 μL addition plate; 96-well Whatman 2 ml Uniplate Incubator, 37° C., 5% CO2; Skatron EMBLA-384 Plate Washer; Multimek Pipetting System; Genesis Freedom 200 System; Mosquito System; Temo Nanolitre Pipetting System; and FLIPR^384 Fluorometric Imaging Plate Reader System are used.
Buffers. Assay Buffer: Hanks Balanced Salt Solution, with 20 mM Hepes, 2.5 mM Probenecid (Sigma P-8761) first dissolved in 1 N aqueous NaOH, 1% Bovine Serum Albumin (Sigma A-9647). Dye Loading Buffer: Assay Buffer plus 1% Fetal Bovine Serum and Fluo-4AM/Pluronic Acid Mixture. 2 mM Fluo-4AM ester stock in DMSO (Molecular Probes F-14202) Concentration of 2 μM in buffer for a final concentration of 1 μM in Assay. 20% Pluronic Acid Solution stock, with a concentration of 0.04% in Buffer, 0.02% in Assay.
65 μL of 2 mM Fluo-4AM are mixed with 130 μL of 20% Pluronic Acid. The resulting solution and 650 μL FBS is added to the assay buffer for a total volume of 65 mL. Positive Controls: 4-Br-A23187: 10 mM in DMSO; final concentration 10 μM. Acetylcholine: 10 mM in water, working stock at both 20 μM and 30 μM in assay buffer, final concentration of 10 μM. This is used to check the maximum stimulation of the CHOK1/hM1 cells. 20 μM (2×) acetylcholine is added in the preincubation part of the assay, and the 30 μM (3×) stock is added in the second part. (EC20)Acetylcholine: 10 mM in water, working stock of 9 nM (3×), and final concentration in assay is 3 nM. This is used after the preincubation with test compounds. Addition of the EC20 Acetylcholine to each well with a test compound will ascertain any modulator activity. 24 wells contain 3 nM Acetylcholine alone as a control.
Screening Plate: Compounds are titrated in 96-well plates (columns 2-11), 100% DMSO, started at a concentration of 15 mM (150× stock concentration), and 3-fold serial dilutions using Genesis Freedom200 System. Four 96-well plates are combined into a 384-well plate using Mosquito Nanolitre Pipetting System by transferring 1 μl of serial diluted compounds to each well, and 1 mM acetylcholine (100× stock concentration) were added as a control. Using Temo, 49 μl assay buffer is added to each well of the 384-well plate right before assay.
In a 96-well Whatman 2 ml Uniplate, 9 nM Acetylcholine (3×) is pipetted into wells corresponding to the screening compounds and into control wells. The 30 μM acetylcholine control (3×) is added into control wells and the 3× agonist plate is transferred into a 384-well plate.
Cells are washed three times with 100 μL of buffer, leaving 30 μL of buffer in each well. Using Multimek, 30 μL of Dye Loading Buffer is added into each well and incubated at 37° C., 5% CO2 for up to one hr.
After 60 min, the cells are washed three times with 100 μL of buffer, leaving 30 μL of buffer in each well. The cell plate, screening plate, and agonist addition plates are placed on the platform in the FLIPR and the door is closed. A signal test to check background fluorescence and basal fluorescence signal is performed. Laser intensity is adjusted if necessary. […]
For orientation: A change in cytosolic calcium serves as a functional read-out for many receptors and channels.
For `O=C(O)c1cn(Cc2ccc(N3CCCC3=O)cc2)c2cccc(F)c2c1=O` [Example 3, 5-Fluoro-4-oxo-1-[4-(2-oxopyrrolidin-1-yl)benzyl]-1,4-dihydroquinoline-3-carboxylic acid], the EC50 came out at 2500 nM.

For `O=C(O)c1cn(Cc2ccc(-n3cc(CCO)cn3)cc2)c2cccc(F)c2c1=O` [Example 19], the EC50 came out at 32 nM.

For `Cc1nccn1-c1ccc(Cn2cc(C(=O)O)c(=O)c3cccc(F)c32)c(F)c1` [Example 109], the EC50 amounted to 181 nM.

Consider `O=C(O)c1cn(Cc2ccc(-n3cc(CF)cn3)cc2)c2cccc(F)c2c1=O` [Example 62], for which the EC50 was 31 nM.

On to `O=C(O)c1cn(Cc2ccc(-n3ccnc3)cc2)c2cccc(F)c2c1=O` [Example 6], for which the EC50 worked out at 102 nM.

For the molecule `CNc1ccc(Cn2cc(C(=O)O)c(=O)c3c(F)cccc32)cc1` [Example 149, 5-Fluoro-1-[4-(methylamino)benzyl]-4-oxo-1,4-dihydroquinoline-3-carboxylic acid], the EC50 worked out at 749 nM.

On to `O=C(O)c1cn(Cc2ccc(-n3ncc4ccccc43)cc2F)c2c(F)cccc2c1=O` [Example 112], for which the EC50 was found to be 97 nM.

Take `CCOC(=O)c1cn(Cc2ccc(-n3ccc(C(C)O)n3)cc2)c2cccc(F)c2c1=O` (centres unmarked) [Example 151, Ethyl 5-fluoro-1-{4-[3-(1-hydroxyethyl)-1H-pyrazol-1-yl]benzyl}-4-oxo-1,4-dihydroquinolin-3-carboxylate]: the EC50 stood at 78 nM.

With `O=C(O)c1cn(Cc2ccc(-n3cc(CO)cn3)cc2)c2cccc(F)c2c1=O` [Example 59], the EC50 turned out to be 39 nM.

Regarding `CN(C)c1ccc(Cn2cc(C(=O)O)c(=O)c3c(F)cccc32)cc1` [Example 150, 1-[4-(dimethylamino)benzyl]-5-fluoro-4-oxo-1,4-dihydroquinoline-3-carboxylic acid], the EC50 is 1070 nM.

On to `CCOC(=O)c1cn(Cc2ccc(-n3ccc(C(F)F)n3)cc2)c2cccc(F)c2c1=O` [Example 153, Ethyl 1-{4-[3-(difluoromethyl)-1H-pyrazol-1-yl]benzyl}-5-fluoro-4-oxo-1,4-dihydroquinoline-3-carboxylate], for which the EC50 came to 749 nM.

`O=C(O)c1cn(Cc2ccc(-n3ccc(CF)n3)cc2)c2cccc(F)c2c1=O` [Example 152, 5-Fluoro-1-{4-[3-(fluoromethyl)-1H-pyrazol-1-yl]benzyl}-4-oxo-1,4-dihydroquinoline-3-carboxylic acid]: the EC50 was determined as 41 nM.

For `O=C(O)c1cn(Cc2ccc(-n3cccn3)cc2)c2c(F)ccc(F)c2c1=O` [Example 1], the EC50 worked out at 261 nM.

Take `C=Cc1cnn(-c2ccc(Cn3cc(C(=O)OCC)c(=O)c4c(F)cccc43)cc2)c1` [Example 156, Ethyl 5-fluoro-4-oxo-1-[4-(4-vinyl-1H-pyrazol-1-yl)benzyl]-1,4-dihydroquinoline-3-carboxylate]: the EC50 is 25 nM.

Turning to `O=C(O)c1cn(Cc2ccc(-n3cnc(-c4ccccc4)c3)cc2)c2cccc(F)c2c1=O` [Example 31], the EC50 is 40 nM.

Consider `O=C(O)c1cn(Cc2ccc(-n3cnc4ccccc43)cc2)c2c(F)ccc(F)c2c1=O` [Example 2], for which the EC50 is 58 nM.

Regarding `CCOC(=O)c1cn(Cc2ccc(-n3cc(C#N)cn3)cc2)c2cccc(F)c2c1=O` [Example 155, Ethyl 1-[4-(4-cyano-1H-pyrazol-1-yl)benzyl]-5-fluoro-4-oxo-1,4-dihydroquinoline-3-carboxylate], the EC50 was found to be 378 nM.

With `CC(=O)c1cn(-c2ccc(Cn3cc(C(=O)O)c(=O)c4cccc(F)c43)c(F)c2)c2ccccc12` [Example 120], the EC50 came out at 45 nM.

`CC(C)C(=O)Nc1ccc(Cn2cc(C(=O)O)c(=O)c3c(F)cccc32)cc1` [Example 4, 5-Fluoro-1-[4-(isobutyrylamino)benzyl]-4-oxo-1,4-dihydroquinoline-3-carboxylic acid]: the EC50 was 308 nM.

As to `O=C(O)c1cn(Cc2ccc(-n3ccc4ncccc43)cc2)c2cccc(F)c2c1=O` [Example 36], the EC50 was determined as 40 nM.
